According to patent US5814612A, “Retinol derivatives and uses thereof” (priority 1992, dated 1998):
Where two headings read alike, the source gives them in different places.

Legend:
thymocytes [1] = test: Proliferation of Con A stimulated thymocytes in serum-free ITLB medium; format: cell-based, BALB/c mouse; conditions: 3×10^-6 M retinol, Con A 0.5 μg/ml
Procedure: Purified thymocytes (5×10^5 cells/well) were stimulated by TCR crosslinking with immobilized anti-CD3e antibody (FIG. 15A) or 0.4 μg/ml Con A (FIG. 15B) in serum-free ITLB medium. The indicated amounts of retinoids were added either once at the beginning of the experiment (marked as "1×") or every 12 hours thereafter (marked as "6×"). DNA synthesis was measured after 72 hours by tritiated thymidine uptake as described.
Thymuses of 3 to 6-week-old BALB/c mice were teased in serum-free RPMI medium supplemented with 1% BSA, 10^-6 M linoleic acid and antibiotics. […] Cell viability was evaluated by trypan blue dye exclusion. To determine the extent of depletion of accessory cells, samples were stained with FITC-conjugated anti-Fc receptor antibody and analyzed by flow cytometry on a FACScan instrument (Becton Dickinson). No FcR-bearing cells were detected by this procedure.
Cells were cultured in serum-free medium, referred to as ITLB, containing RPMI 1640 supplemented with 8×10^-7 M insulin (5 μg/ml), 7×10^-8 M transferrin (5 μg/ml), 2×10^-6 M linoleic acid, 2×10^-6 M delipidated BSA (0.12 mg/ml), 2 mM L-glutamine, 1 mM sodium pyruvate and antibiotics. […] The optimal concentration for stimulation of T cells was determined for each batch of anti-CD3 mAb and Con A. The optimal range of Con A was particularly narrow in serum-free medium (0.5-0.2 μg/ml) and varied with the cell density used. […]

thymocytes [2] = test: Viable and blast cell counts of thymocytes (trypan blue); format: cell-based, BALB/c mouse
Procedure: FIG. 14C: BALB/c thymocytes (3×10^6 /ml) were activated with anti-CD3e mAb as FIG. 1A. The total number of viable cells was determined by counting trypan blue-excluding cells, and those of blast cells by counting viable large cells in six replicate wells. Because of the relatively low cell density required in the culture (see FIG. 14A), the numbers reported for blast cells are best estimates.
Thymuses of 3 to 6-week-old BALB/c mice were teased in serum-free RPMI medium supplemented with 1% BSA, 10^-6 M linoleic acid and antibiotics. Depletion of accessory cells was achieved by two cycles of complement-dependent lysis with a mixture of anti-IA^d (5 μg/ml) and anti-IE^d (1:500 diluted ascites fluid). Briefly, cells were incubated on ice for 30 minutes with Ia antibodies, spun down, resuspended in 1:40 diluted rabbit complement, and incubated at 37° C. for 45 minutes. Incubations and two subsequent washes were carried out with RPMI medium containing 1% BSA. Cell viability was evaluated by trypan blue dye exclusion. To determine the extent of depletion of accessory cells, samples were stained with FITC-conjugated anti-Fc receptor antibody and analyzed by flow cytometry on a FACScan instrument (Becton Dickinson). No FcR-bearing cells were detected by this procedure.

5/2 = test: Retinol metabolism, 5/2; format: in vitro ADME, human
Procedure: (§1) Legend: 2.5×10^6 cells were grown overnight in 5 ml RPMI/10% FBS. The FBS was preincubated at room temperature with 14.4 uCi [^3 H] retinol (NEN) for 4h. The cell pellet was washed twice with PBS. The retinoid were extracted according to MClean et al. 90 and separated on an analytical c18 reverse phase column according to FIG. 7. The DPM were determined using an on-line scintillation counter.

RPMI = test: Retinol metabolism, RPMI (Leukemia ALL); format: in vitro ADME
Procedure: as §1

P388D.1 = test: Retinol metabolism, P388D.1; format: in vitro ADME, mouse
Procedure: as §1

SK3886 = test: Retinol metabolism, SK3886; format: in vitro ADME
Procedure: as §1

SK--N--SH = test: Retinol metabolism, SK--N--SH; format: in vitro ADME, human
Procedure: as §1

[3] = Stability of retinoids in serum-free tissue culture medium; format: in vitro ADME
Chemical stability of P3 = format: physicochemical

CC1=C(/C=C/C(C)=C/C=C/C(C)=C/CO)C(C)(C)CCC1 [retinol, all-trans retinol]
Con A stimulated thymocyte proliferation (thymocytes [1]): growing exponentially
T cell activation / blast transformation by agent alone (thymocytes [2]; alone): no discernible T cell activation
viability of thymocyte cultures (thymocytes [2]; retinol by itself): maintain a higher state of viability than anti-CD3e "only" stimulation
Ester (% of taken up retinol) (5/2): 24%
P3 (% of taken up retinol) (5/2): 4%
Total cts. (5/2): 5.7 × 10^5 cts.
Ester (% of taken up retinol) (RPMI): 38%
P3 (% of taken up retinol) (RPMI): 2%
Total cts. (RPMI): 1.2 × 10^5 cts.
Ester (% of taken up retinol) (P388D.1): 26%
P3 (% of taken up retinol) (P388D.1): 0.5%
Total cts. (P388D.1): 1.4 × 10^5 cts.
Ester (% of taken up retinol) (SK3886): 2%
P3 (% of taken up retinol) (SK3886): 3%
Total cts. (SK3886): 4.7 × 10^5 cts.
Ester (% of taken up retinol) (SK--N--SH): 25%
P3 (% of taken up retinol) (SK--N--SH): 0.9%
Retinol (% of taken up retinol) (SK--N--SH): 56%
Total cts. (SK--N--SH): 2.0 × 10^5 cts.

CC(C=CC=C(C)C(O)CO)=CC=C1C(C)=CCCC1(C)C (stereo not shown) [14HRR, 14-hydroxy-4,14-retro-retinol]
half-life [3]: ~4 h
half-life ([3]; tissue culture medium, data not shown): 4 h
chemical stability (Chemical stability of P3): unstable in chloroform and does not survive an acid extraction step
